The results in this text go back to patent publication US6949522B2, “β-2′- or 3′-halonucleosides” (Pharmasset, Inc., priority 2001, dated 2005).

One data set has as its system human PBM cells. In words: Toxicity assay (MTS/MTT dye), human PBM cells. The note with it: read-out: Cytotoxicity PBM IC50; human PBM cells, 5 days incubation. How it is done:
(§1) After a three day-incubation for HepG2, or 5 days for human PBM cells, cell viability and mitochondrial activity were measured in a colorimetric assay using the MTS- or MTT dye method (Promega, Madison, Wis.).

The test system of the next data set is HepG2. In words: Toxicity assay (MTS/MTT dye), HepG2 cells. The following applies: for Cytotoxicity HepG2 IC30: HepG2, three day-incubation (Table 1). How it is done:
as §1
Background: Tetrazolium assays rely on reduction of a dye to a coloured formazan, in cell work by metabolically active cells.

Data set [1] relates to HIV-1 LAI (wild type). In words: HIV-1 RT-assay on supernatant of acutely infected human PBM cells, strain LAI. The class given is cell-based. The note with it: 5 days, RT activity reduced by 90%. How it is done:
(§2) Human PBM cells (1×10^6 cells/T25 flask) were PHA stimulated for 2 or 3 days, and infected with either a wild type (LAI and xxBRU) or a 3TC-resistant (xxBRU 184V) HIV-1 strain at 100 TCID50, as previously described (27). The culture was kept for 5 days in presence of test compounds at serial 1-log dilutions. Subsequently, human PBM cells were removed from the culture supernatant by centrifugation (10 minutes, 400×g, 4° C.). This clarified supernatant was tested either in the RT-assay, or in the Q-RT-PCR assay.
(§3) Virus particles present in a 1 mL aliquot of culture supernatant were concentrated by high-speed centrifugation (2 hours, 20,000×g, 4° C.). The supernatant was then removed and the virus pellet was dispensed into a 100 μL virus solubilization buffer (VSB: 0.5% Triton X-100; 0.8 M NaCl, 0.5 mM phenylmethylsulfonyl, 20% glycerol, 50 mM Tris.HCl pH 7.8). A 10 μL aliquot of RT-VSB was mixed with 75 μL RT cocktail (60 mM Tris.HCl pH 7.8, 12 mM MgCl2, 6 mM DTT, 6 μg/mL poly (rA)n-oligo (dT)10-12, 1.2 mM dATP, and 80 μCi/mL 3H-TTP) and incubated for 2 hours at 37° C. Subsequently 100 μL of 10% TCA was added, and the total amount of incorporated 3H-TTP was determined.
(§4) HIV-1 present in culture supernatant fluids was quantified by two different methodologies: i) the Q-RT-PCR with read-out in log copies/mL; and ii) the endogenous viral RT assay on cell supernatant with read-out in log counts per minute/mL (CPM/mL). Upon addition of antiviral compounds to the culture media, a dose-related decrease in virus production was observed. Although the two methodologies measured different parameters (viral RNA versus active RT enzyme), results were not markedly different from each other. The HIV-1 Q-RT-PCR results were compared with a previously established cell-based antiviral drug evaluation assay (endogenous HIV-1 RT polymerization activity in cell supematant)(27).

The subject of data set [2] is HIV-1 xxBRU (wild type). In words: HIV-1 RT-assay on supernatant of acutely infected human PBM cells, strain xxBRU. The class given is cell-based. The note with it: 5 days, RT activity reduced by 90%. The protocol:
as §2, §3, §4

Data set [3] deals with 3TC-resistant (xxBRU 184V) HIV-1. In words: HIV-1 RT-assay on supernatant of acutely infected human PBM cells, strain xxBRU 184V. The class given is cell-based. The note with it: for EC90: human PBM cells, 5 days, RT activity reduced by 90%, read-out: RT-Assay 184V EC90. How it is done:
as §2, §3, §4

For data set [4], the system named is HIV-1 LAI (wild type). In words: HIV-1 Q-RT-PCR assay in human PBM cells, strain LAI. The class given is cell-based. The following applies: 5 days, viral RNA reduced by 90%. How it is done: as §2
(§5) Viral RNA present in the culture supernatant was prepared using commercially available columns (QIAamp Viral RNA mini Kit, Qiagen, Valencia, Calif.). Viral RNA was detected in real-time by monitoring increases in fluorescence signal that resulted from degradation of a quenched fluorescent probe molecule following the hybridization of the probe to the arnplified viral DNA (TaqMan 7700 chemistry, Applied Biosystems, Foster City, Calif.). The TaqMan probe and primers were designed using the Primer Express software (Applied Biosystems); they cover highly conserved sequences complementary to an 81 base pair long fragment from the HIV-1 RT gene between codon 230 and 257 of the group MHIV-1 genome; • probe 5′-6FAM-[…]-TAMRA-3′ (Sequence 1) • sense primer: 5′-[…]-3′ (Sequence 2); and • antisense primer 5′-[…]-3′ (Sequence 3).
(§6) A total of 5 μL RNA was RT-amplified using reagents and conditions as described by the manufacturer (Applied Biosystems). […] Copy numbers were calibrated using the Roche Amplicor HIV-1 Monitor test™ (Roche Diagnostics, Branchburg, N.J.) on a 1-log dilution series of a clinical HIV-1 genotype B isolate (attenuated in vitro to obtain a high viral load). The 10-6 diluted sample became positive at threshold cycle (Ct=PCR cycle threshold where a sample becomes detectable)=35.52, which corresponded to 1,410 copies/mL in the Roche monitor HIV-1 version II assay. When validated over a dynamic range of 3 logs of virus, there was excellent correlation (r2˜1) between the two methodologies. […] Therefore, the currently designed primer and probe set allowed reliable quantification of both clinical samples and HIV-1 in vitro preparations.
as §4

Data set [5] has as its system HIV-1 xxBRU (wild type). In words: HIV-1 Q-RT-PCR assay in human PBM cells, strain xxBRU. The class given is cell-based. The following applies: 5 days, viral RNA reduced by 90%. How it is done:
as §2, §5, §6, §4

Data set [6] relates to 3TC-resistant (xxBRU 184V) HIV-1. In words: HIV-1 Q-RT-PCR assay in human PBM cells, strain xxBRU 184V. The class given is cell-based. The following applies: for EC90: human PBM cells, 5 days, viral RNA reduced by 90%, read-out: Q-RT-PCR HIV-1 assay 184V EC90. The protocol:
as §2, §5, §6, §4

For a further data set, the system named is BVDV (strain NADL). In words: BVDV Q-RT-PCR assay in MDBK cells. The class given is cell-based, bovine viral diarrhea virus. The note with it: MDBK cells, 24 hour incubation, viral RNA in supernatant, read-out: BVDV assay Q-PCR EC90. How it is done:
Madin-Darby Bovine Kidney (MDBK) cells were maintained in DMEM/F12 supplemented with 10% heat-inactivated horse serum at 37° C. in a humidified, 5% CO2 atmosphere. Cells were seeded in 96-well plates at 5×10^3 cells/wcll and incubated for 1 hour. BVDV (strain NADL) was used to infect the cells in monolayer at MOI 0.02. After 45 minutes of infection, the viral inoculum was removed and the cells were washed twice. Media or media containing test compound was added to these cells, followed by 24 hour incubation. Cell supernatant fluids were collected, clarified by centrifugation (2 minutes, 3,000 g, room temperature) and viral RNA was prepared (QIAamp Viral RNA mini Kit, Qiagen). Viral RNA was detected in real-time RT-PCR.

The nature of data set [7]: in vitro. The following applies: human. The protocol:
as §1

Data set [8] can be described thus: in vitro. The following applies: human. How it is done: as §1
The source holds these as a separate data set.

Another data set has as its system HBV. In words: HBV Q-PCR assay in HepAD38 (AD38) cells. The class given is cell-based, hepatitis B virus. The note with it: AD38 cells, 5-day incubation, HBV DNA in supernatant, read-out: HBV assay Q-PCR EC90. The protocol: The HepAD38 cell line replicates HBV under conditions that can be regulated with tetracycline (12, 15). In the presence of this drug, the cell supernatant is virtually free of viral DNA, but upon the removal of tetracycline from the culture medium, these cells secrete virus-like particle into the supernatant (12). HepAD38 cells were seeded at 5×10^4 cells/well in a 96-well plate in seeding medium (DMEM/F12+10% FBS, 50 μg/mL penicillin, 50 μg/mL streptomycin, 100 μg/mL kanamycin, 400 μg/mL G418, and 0.3 μg/mL tetracycline) and incubated for 2 days at 37° C. in a 5% CO2 humid atmosphere. The seeding media was removed, and cells were washed 3 times with PBS. Cells were then incubated with 200 μL assay medium (DMEM/F12+10% FBS+P/S/K) containing either no compound, test compound, or control drugs at 10 μM. After a 5-day incubation, the cell supernatant was collected and stored at −70° C. until HBV DNA was quantified. HBV DNA was extracted from supernatant using QiaAmp DNA blood Mini kit (Qiagen) and nucleic acids eluted in 200 μL. Viral DNA was detected in Q-PCR. The TaqMan probe and primers were designed using the Primer Express software (Applied Biosystems) and cover highly conserved sequences complementary to the DNA sequences present in HBsAg (24). A total of 5 μL DNA was amplified using reagents and conditions as described by the manufacturer (Applied Biosystems). […]

Read-outs that look alike come from different tables or passages of the source.

In general, IC50 refers to the concentration that inhibits the measured activity by half. A word on the EC90: it is the concentration needed for an effect of 90%. With `Nc1nc(=O)n([C@H]2C=C[C@@H](CO)O2)cc1F` [D-D4FC, β-D-2′,3′-didehydro-2′3′-dideoxy-5-fluorocytidine, reference compound], the IC50 is 80 µM with human PBM cells and over 100 µM with HepG2 (read-out: Cytotoxicity HepG2 IC50, HepG2, three day-incubation (Table 3)). In addition, the “Cytotoxicity HepG2 IC30” value with HepG2 was over 100 µM. Also, the EC90 with HIV-1 LAI (wild type) [1] is 0.18 µM; with HIV-1 xxBRU (wild type) [2] it was 0.08 µM; in data set [3] it was 0.15 µM; with HIV-1 LAI (wild type) [4], 0.38 µM; in the data set on HIV-1 xxBRU (wild type) [5], 0.22 µM; in data set [6], 0.21 µM. Besides, the EC90 in the data set with BVDV (strain NADL) is over 200 µM. In addition, in [3], the “RT-Assay FI, fold increase (EC90 HIV-1184V/EC90 HIV-1xxBRU)” value (shortened to “RT-Assay FI, fold increase”) was determined as 1.9. Besides, the “Q-RT-PCR HIV-1 assay FI, fold increase (EC90 HIV-1184V/EC90 HIV-1xxBRU)” value in [6] worked out at 0.97.

In turn, `NC(=O)c1ncn([C@@H]2O[C@H](CO)[C@@H](O)[C@H]2O)n1` [Ribavirin, 1-β-D-ribofuranosyl-1H-,1,2,4-triazole-3-carboxamide, reference compound] registered an IC50 at 5 days in “in vitro [7]” of over 100 µM. This compound also had an IC50 at 3 days in the data set “in vitro [8]” of 90 µM. Besides, the EC90 in the data set with HBV (Hepatitis B virus, HePAD38, 120 h) was over 100 µM; with BVDV (strain NADL) (Bovine viral diarrhea virus isolates and strains), 5 µM.

With “β-D-2′,3′-didehydro-2′,3.′-dideoxy-3′-fluoro-5-fluoro cytidine [Compound 10-F]”, the “Cytotoxicity HepG2 IC30” value in the data set on HepG2 was over 100 µM. Moreover, the EC90 was 34.5 µM in the data set on HIV-1 LAI (wild type) [1]; 37.5 µM in the data set on HIV-1 xxBRU (wild type) [2]; 494 µM in data set [3]; 36.3 µM with HIV-1 LAI (wild type) [4]; 34.8 µM with HIV-1 xxBRU (wild type) [5]; over 100 µM in [6]. Besides, the EC90 with HBV was over 100 µM; with BVDV (strain NADL), over 200 µM. For the same compound, the “RT-Assay FI, fold increase” value in data set [3] is 13.2.

Take “β-L-2′,3′-didehydro-2′,3.′-dideoxy-3′-fluoro-5-fluoro cytidine [Compound 23-F]”: the “Cytotoxicity HepG2 IC30” value with HepG2 was over 100 µM. The EC90 in the data set with HIV-1 LAI (wild type) [1] was determined as 0.12 µM; with HIV-1 xxBRU (wild type) [2], 0.14 µM; in [3], 67 µM; with HIV-1 LAI (wild type) [4], 0.09 µM; in the data set with HIV-1 xxBRU (wild type) [5], 0.16 µM; in data set [6], 53 µM. Further, the figures for the EC90 with HBV and with BVDV (strain NADL) were 68 µM and over 200 µM, respectively. Besides, the “RT-Assay FI, fold increase” value in data set [3] is recorded as 479. The “Q-RT-PCR HIV-1 assay FI, fold increase (EC90 HIV-1184V/EC90 HIV-1xxBRU)” value in data set [6] was 333.
